Measurements published in patent US20080113956A1, “Substituted Porphyrins” (priority 1997, published 2008).
Read-outs that look alike come from different tables or passages of the source.

What was measured:
DNA = assay: SOD activity in vitro in the presence of DNA (DNA interaction); type: biochemical
Source text: The “ortho effect” also decreases the toxicity. It is well known that porphyrins, and particularly cationic porphyrins, interact with DNA and can act as DNA cleavers. This fact can be an issue in the use of metallo-porphyrins as anti-tumor drugs. The present mimetics avoid this interaction.
In order to maximize the decrease in toxicity due to interaction with DNA, two derivatives of the ortho compound have been prepared which carry four ethyl or four butyl groups (“4” and “5”, respectively).

[1] = tested on: isolated, perfused mouse liver; assay: Isolated, perfused mouse liver, global ischemia/reperfusion injury; settings: 10 μm in perfusate
Experimental: The ability of Mn TE-2-PyP to attenuate injury associated with 60 minutes of global ischemia followed by 90 minutes of reperfusion was assessed in an isolated, perfused mouse liver model. Excised livers were perfused with a buffered salt solution for 15 minutes after which the metalloporphyrin was introduced into the perfusate and the liver perfused in a recirculating system for an additional 15 minutes. The livers were then rendered globally ischemic under normal thermic conditions for 60 minutes. Following the ischemic period the livers were perfused for 90 minutes with perfusate supplemented with 10 μm Mn TE-2-PyP. In this model the ischemia/reperfused livers have a marked release of hepatocellular enzymes, aspartate transaminase, alanine transaminase, and lactate dehydrogenase during the first 2½ minutes of reperfusion. This is followed by a progressive release of hepatocellular enzymes indicating hepatocellular injury over the 90 minute perfusion period. […] At the end of the experiments liver […]. […] They remain firm and with a normal texture to gross morphologic examination.

rat brain homogenates = assay: Iron/ascorbate mediated lipid peroxidation of rat brain homogenates (TBARS); type: biochemical; settings: for IC50: rat brain homogenate, 30 minutes incubation with iron and ascorbate, TBARS
Experimental: Frozen adult Sprague-Dawley rat brains (Pel-Freez, Rogers, Ark.) were homogenized with a polytron (Turrax T25, Germany) in 5 volumes of ice cold 50 mM potassium phosphate at pH 7.4. Homogenate protein concentration was determined with the Coomassie Plus protein assay (Pierce, Rockford, Ill.) using bovine serum albumin as a standard. The homogenate volume was adjusted with buffer to give a final protein concentration of 10 mg/ml and frozen as aliquots at […].
Rat brain homogenates (2 mg protein) were incubated with varying concentrations of antioxidant at 37° C. for 15 minutes. Oxidation of the rat brain homogenate was initiated by the addition of 0.1 ml of a freshly prepared anaerobic stock solution containing iron(II) chloride (0.25 mM) and ascorbate (1 mM) as previously reported (Braughler et al, J. Biol. Chem. 262:10438 (1987)). Samples (final volume 1 ml) were placed in a shaking water bath at 37° C. for 30 minutes. The reactions were stopped by the addition of 0.1 ml of a stock butylated hydroxytoluene (60 mM) solution in ethanol.
The concentration of thiobarbituric acid reactive species (TBARS) in rat brain homogenates was used as a index of lipid peroxidation (Bernhem et al, J. Biol. Chem. 174:257 (1948); Witz et al, J. Free Rad. Biol. Med. 2:33 (1986); Kikugawa et al, Anal. Biochem. 202:249 (1992); Jentzsch et al, Free Rad. Biol. Med. 20P251 (1996)). Malondialdehyde standards were obtained by adding 8.2 μl of 1,1,3,3-tetramethoxypropane in 10 ml of 0.01 M HCl and mixing for 10 minutes at room temperature. This stock was further diluted in water to give standards that ranged from 0.25 to 25 μM. Samples or standards (200 μl) were acidified with 200 μl of 0.2 M phosphoric acid in 1.5 ml locking microfuge tubes. The color reaction was initiated by the addition of 25 μl of a 0.11M thiobarbituric acid solution and samples were placed in a 90° C. heating block for 45 minutes. TBARS were extracted with 0.5 ml of n-butanol by vortexing samples for 3 minute and chilling on ice for 1 minute. The samples were then centrifuged at 12,000×g for 3 minutes, 150 μl aliquots of the n-butanol phase were placed in each well of a 96-well plate and read at 535 nm in a Thermomax platereader (Molecular Devices, Sunnyvale, Calif.) at 25° C. Sample absorbencies were converted to MDA equivalencies (μM) by extrapolation from the MDA standard curve. None of the antioxidants at concentrations employed in these studies affected the reaction of MDA standards with thiobarbituric acid and reactions without TBA were used as subtraction blanks.
Data were presented as their means ±SE. The inhibitory concentration of antioxidants that decreased the degree of lipid peroxidation by 50% (IC50) and respective 95% confidence intervals (CI) were determined by fitting a sigmoidal curve with variable slope to the data (GraphPad Prizm, San Diego, Calif.).

[2] = SOD activity in U/mg (reduction of cytochrome c or photoreduction of NBT); type: biochemical; settings: for SOD: unit = amount that inhibits one half the reduction of cytochrome c or photoreduction of NBT
mean arterial pressure = assay: Effect on vascular tone: blood pressure in anesthetized rats; type: in vivo; settings: rat; for duration of the hypotensive effect: i.v.
Experimental: Rats were anesthetized and a femoral vein and carotid artery were cannulated. While blood pressure was monitored by the carotid artery, Mn TM-2-PyP was injected i.v. at doses ranging from 0.1 to 3.0 mg/kg. Mean arterial pressure fell from 100-125 mmHg to 50-60 mmHg within five to ten minutes. The effect was transient, lasting up to 30 minutes at doses of 0.1 to 0.25 mg/kg. […] Scavenging of superoxide in vascular walls would potentiate the effects of nitric oxide producing hypotension.

airway hyperreactivity = assay: Airway hyperreactivity to methacholine in ovalbumin sensitized mice; type: in vivo, mouse; settings: intratracheal 2 μg daily for 4 days, methacholine 20, 30 and 40 mg/ml
Experimental: Mice were sensitized by intraperitoneal injection of ovalbumin twice, 14 days apart. Fourteen days after the second i.p. injection they were challenged with aerosolized ovalbumin daily for three days. Forty-eight hours after the third inhalation of ovalbumin they were given a 1 minute methacholine challenge and airway hyperreactivity followed using a Buxco body plethysmograph. Significant increases in airway resistance as measured by the PENH index occurred at doses of 20, 30 and 40 mg/ml of methacholine. […] This dose of in TM-2-PyP is equivalent to 0.8 mg/kg whole body dose.

[3] = vs NHE, literature comparators, cited from earlier work

Compound | toxicity due to interaction with DNA, comparison between ortho derivatives (DNA; Table 2 and FIG. 3) | attenuation of liver injury ([1]; 60 minutes global ischemia, 90 minutes reperfusion) | acute hepatocellular enzyme release ([1]; first 2½ minutes of reperfusion) | progressive hepatocellular enzyme release ([1]; over the 90 minute perfusion period) | interaction with DNA (DNA; SOD activity in vitro in the presence of DNA) | increase in potency as lipid peroxidation inhibitor, ortho vs para (rat brain homogenates; MnTM-2-PyP vs MnTM-4-PyP) [fold] | IC50 (rat brain homogenates) [µM] | difference in SOD activity, ortho vs para ([2]; MnTM-2-PyP vs MnTM-4-PyP) | SOD [2] | mean arterial pressure after injection (mean arterial pressure; i.v. 0.1 to 3.0 mg/kg, fell from 100-125 mmHg within five to ten minutes) | duration of the hypotensive effect (mean arterial pressure; doses of 0.1 to 0.25 mg/kg) | duration of the hypotensive effect (mean arterial pressure; doses of 1-3 mg/kg) | airway hyperreactivity (PENH index) (airway hyperreactivity) | E°1/2 half-wave potential of comparison compounds ([3]; listed as MnTM-2-PyP^3−) | E°1/2 half-wave potential of comparison compounds [3] | E°1/2 half-wave potential of comparison compounds ([3]; listed as MnTM-4-PyP^5−)
CC[n+]1ccccc1-c1c2nc(c(-c3cccc[n+]3CC)c3ccc([n-]3)c(-c3cccc[n+]3CC)c3nc(c(-c4cccc[n+]4CC)c4ccc1[n-]4)C=C3)C=C2.[Mn+3] [MnTE-2-PyP^5+, manganic meso-tetrakis-(N-ethylpyridinium-2-yl)porphyrin] | significantly less toxic than the methyl derivative | highly efficacious in attenuating the liver injury | blocking virtually all | blocking progressive hepatocellular enzyme release | – | – | – | – | – | – | – | – | – | – | – | –
manganese(III) 5,10,15,20-tetrakis(N-methylpyridyl)porphyrin [MnTM-2-PyP^5+] | – | – | – | – | greatly decreased | 15 | 1 | factor of six | 8,500 U/mg | 50-60 mmHg | up to 30 minutes | up to two hours | statistically significant reduction | +220 mV | – | –
manganese(III) 5,10,15,20-tetrakis(N-methylpyridyl)porphyrin [MnTM-4-PyP^5+, reference compound] | – | – | – | – | – | – | 16 | – | 547 U/mg | – | – | – | – | – | +60 mV | +060 mV
